{
  "source": "patent US20240206462A1",
  "about": "“ESSENTIAL OIL-BASED AGRICULTURAL COMPOSITION AND METHOD FOR CONTROLLING A PEST USING THE SAME” (MOMENTIVE PERFORMANCE MATERIALS INC., priority 2021, published 2024)",
  "system": "tomato grey mold (Botrytis cinerea)",
  "assay": "Plate method growth inhibition of fungal plant pathogen on PDA medium",
  "assay_type": "cell-based",
  "conditions": "concluded from geraniol-based compositions",
  "data": [
    {"smiles": "CC(C)=CCCC(C)=CCO", "note": "[geraniol, 3,7-dimethylocta-2,6-dien-1-ol]", "values": [
      {"measurement": "inhibition activity on Botrytis genus, especially Botrytis cinerea", "result": "high inhibition activity"}
    ]}
  ]
}
